Settings: for mass density: 293 K, 101.33 kPa, Pycnometric method; for vapor or sublimation pressure: Transpiration method

CCN1C(=O)CC(=O)N(CC)C1=S [1,3-diethyl-2-thiobarbituric acid]
Settings	mass density [kg/m3]
Crystal	1610

Crystal
Settings	vapor or sublimation pressure [kPa]
327.3 K	0.00039
333.6 K	0.00074
337.7 K	0.0011
340 K	0.00135
343 K	0.00185
348 K	0.00293
349.1 K	0.0034
351 K	0.00384
353.3 K	0.00489
354.1 K	0.00551
355.3 K	0.00634
358.1 K	0.00756
362.4 K	0.01184
367.7 K	0.01865
368.6 K	0.02034
370.7 K	0.02408
372.2 K	0.02684
375.7 K	0.03524
375.9 K	0.03465

CCN1C(=O)CC(=O)N(CC)C1=O [1,3-diethylbarbituric acid]
Settings	mass density [kg/m3]
Crystal	1320

Liquid
Settings	vapor or sublimation pressure [kPa]
328.9 K	0.00282
333.8 K	0.00441
339.1 K	0.00675
346 K	0.0115
351.2 K	0.01744
356.2 K	0.02535
360.3 K	0.03131
366 K	0.04999
371.3 K	0.07142
376.8 K	0.09721
380.7 K	0.1327

From the NIST ThermoML archive (doi:10.1016/j.jct.2014.06.001)
